From PubChem BioAssay AID330 (DTP/NCI, 2004)
“And” between values parts separate entries of the source, which are not always exact repeats. Equal values may be shown once. Inconclusive results and toxic doses are left out.

Tested on: P388 leukemia ip, CD2F1 mice, survival T/C
Test: NCI In Vivo Anticancer Drug Screen. Data for tumor model P388 Leukemia (intraperitoneal) in CD2F1 (CDF1) mice
Details: endpoint: median survival time, higher = longer survival
In short: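 Mice carrying the transplanted tumor received test compound or vehicle. Survival was recorded in each group, and the value is the treated-group measurement divided by that of the vehicle-treated control group.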

[1] = dose: 50.0 mg/kg/injection, schedule: Q01DX005 (ip), vehicle: Klucel (hydroxypropylcellulose) (HPC)
[2] = dose: 100.0 mg/kg/injection, schedule: Q01DX005 (ip), vehicle: Klucel (hydroxypropylcellulose) (HPC)
[3] = dose: 200.0 mg/kg/injection, schedule: Q01DX005 (ip), vehicle: Klucel (hydroxypropylcellulose) (HPC)
[4] = dose: 50.0 mg/kg/injection, schedule: Q01DX009 (ip), vehicle: saline with Tween-80
[5] = dose: 100.0 mg/kg/injection, schedule: Q01DX009 (ip), vehicle: saline with Tween-80
[6] = dose: 200.0 mg/kg/injection, schedule: Q01DX009 (ip), vehicle: saline with Tween-80
[7] = dose: 50.0 mg/kg/injection, schedule: Q01DX005 (ip), vehicle: saline with Tween-80
[8] = dose: 100.0 mg/kg/injection, schedule: Q01DX005 (ip), vehicle: saline with Tween-80
[9] = dose: 200.0 mg/kg/injection, schedule: Q01DX005 (ip), vehicle: saline with Tween-80

Q: With `CC(C)(C)N(O)c1cccc(P(c2ccccc2)c2ccccc2)c1` as the compound, how does the T/C (dose: 50.0 mg/kg/injection, schedule: Q04DX002 (ip), vehicle: saline with Tween-80) read?
A: 91 % of control

Q: What about the T/C (dose: 100.0 mg/kg/injection, schedule: Q04DX002 (ip), vehicle: saline with Tween-80) of the same compound?
A: 94 % of control

Q: What about the T/C (dose: 200.0 mg/kg/injection, schedule: Q04DX002 (ip), vehicle: saline with Tween-80) of the same compound?
A: 100 % of control

Q: Which T/C [1] does the source give for `O=C(c1nc2ccccc2[nH]1)N1CCN(c2ccccc2)CC1` here?
A: 104 % of control

Q: And the T/C [2]?
A: 107 % of control and 95 % of control

Q: And the T/C [3]?
A: 101 % of control and 110 % of control

Q: With `Cn1c(=O)[nH]n(C2Cn3c(=O)n(C)c(=O)n3-c3ccccc32)c1=O` (configuration not stated) as the compound, how does the T/C [1] read?
A: 115 % of control

Q: And the T/C [2]?
A: 99 % of control

Q: What about the T/C [3] of the same compound?
A: 96 % of control

Q: `NC(=O)CS(=O)CC(N)C(=O)O` (configuration not stated) was tested. Which T/C (dose: 50.0 mg/kg/injection, schedule: Q01DX005 (ip), vehicle: saline) did it give?
A: 100 % of control

Q: What about the T/C (dose: 100.0 mg/kg/injection, schedule: Q01DX005 (ip), vehicle: saline) of the same compound?
A: 105 % of control

Q: And the T/C (dose: 200.0 mg/kg/injection, schedule: Q01DX005 (ip), vehicle: saline)?
A: 95 % of control

Q: `C/C=C1\CN2CCC34c5ccc(OC)cc5N(C)C3C2CC1C4C(=O)OC` (configuration not stated) was tested. Which T/C (dose: 17.25 mg/kg/injection, schedule: Q01DX005 (ip), vehicle: acid diluted with saline) did it give?
A: 96 % of control

Q: What about the T/C (dose: 34.5 mg/kg/injection, schedule: Q01DX005 (ip), vehicle: acid diluted with saline) of the same compound?
A: 94 % of control

Q: `COc1ccc(CCNC(=O)c2cc3ccccc3oc2=O)cc1OC` was tested. Which T/C [4] did it give?
A: 94 % of control

Q: And the T/C [5]?
A: 96 % of control

Q: What about the T/C [6] of the same compound?
A: 97 % of control

Q: `O=C1C=CC(=O)C1=Cc1ccccc1` was tested. Which T/C (dose: 2.5 mg/kg/injection, schedule: Q04DX002 (ip), vehicle: saline with Tween-80) did it give?
A: 95 % of control

Q: And the T/C (dose: 5.0 mg/kg/injection, schedule: Q04DX002 (ip), vehicle: saline with Tween-80)?
A: 97 % of control

Q: Which T/C [7] does the source give for `CCOc1cc2c(cc1C(C)c1ccccc1OC)OCO2` (configuration not stated) here?
A: 100 % of control

Q: And the T/C [8]?
A: 98 % of control

Q: And the T/C [9]?
A: 96 % of control

Q: `O=S1(=O)Cc2c(Br)c(Br)c(Br)c(Br)c2C1` was tested. Which T/C (dose: 12.5 mg/kg/injection, schedule: Q01DX009 (ip), vehicle: saline sonified) did it give?
A: 109 % of control

Q: What about the T/C (dose: 25.0 mg/kg/injection, schedule: Q01DX009 (ip), vehicle: saline sonified) of the same compound?
A: 109 % of control

Q: And the T/C (dose: 50.0 mg/kg/injection, schedule: Q01DX009 (ip), vehicle: saline sonified)?
A: 109 % of control

Q: With `C1=CC2OC1c1cc3c(cc12)[C@@H]1C=C[C@@H]3O1` as the compound, how does the T/C [7] read?
A: 96 % of control

Q: And the T/C [8]?
A: 105 % of control

Q: And the T/C [9]?
A: 91 % of control

Q: With `CCCCOc1ccc(-c2c(COC(=O)NC)c(COC(=O)NC)c(C)n2C)cc1` as the compound, how does the T/C (dose: 7.5 mg/kg/injection, schedule: Q01DX009 (ip), vehicle: distilled water + Tween-80) read?
A: 120 % of control

Q: For `CN(CCC(=O)/C(=C\c1ccccc1)c1ccc(Cl)cc1)Cc1ccccc1`, which T/C (dose: 0.4 mg/kg/injection, schedule: Q01DX005 (ip), vehicle: saline with Tween-80) is on record?
A: 101 % of control

Q: What about the T/C (dose: 0.8 mg/kg/injection, schedule: Q01DX005 (ip), vehicle: saline with Tween-80) of the same compound?
A: 102 % of control

Q: What about the T/C (dose: 1.6 mg/kg/injection, schedule: Q01DX005 (ip), vehicle: saline with Tween-80) of the same compound?
A: 109 % of control

Q: What about the T/C (dose: 3.12 mg/kg/injection, schedule: Q01DX005 (ip), vehicle: saline with Tween-80) of the same compound?
A: 109 % of control

Q: And the T/C (dose: 6.25 mg/kg/injection, schedule: Q01DX005 (ip), vehicle: saline with Tween-80)?
A: 111 % of control

Q: How did the T/C (dose: 50.0 mg/kg/injection, schedule: Q01DX009 (ip), vehicle: saline) turn out when `Nc1ccccc1C(=O)Nc1ccc(Cl)cc1C(=O)O` was run?
A: 101 % of control

Q: What about the T/C (dose: 100.0 mg/kg/injection, schedule: Q01DX009 (ip), vehicle: saline) of the same compound?
A: 106 % of control

Q: For `O=[N+]([O-])c1cccnc1S(=O)(=O)c1ncccn1`, which T/C (dose: 6.25 mg/kg/injection, schedule: Q01DX009 (ip), vehicle: Klucel (hydroxypropylcellulose) (HPC)) is on record?
A: 100 % of control

Q: What about the T/C (dose: 12.5 mg/kg/injection, schedule: Q01DX009 (ip), vehicle: Klucel (hydroxypropylcellulose) (HPC)) of the same compound?
A: 110 % of control

Q: And the T/C (dose: 25.0 mg/kg/injection, schedule: Q01DX009 (ip), vehicle: Klucel (hydroxypropylcellulose) (HPC))?
A: 96 % of control

Q: Which results are given for `COc1ccc(C(C#N)N2CCCC2)cc1` (configuration not stated)?
A: T/C (dose: 6.25 mg/kg/injection, schedule: Q04DX003 (ip), vehicle: other): 100 % of control; T/C (dose: 12.5 mg/kg/injection, schedule: Q04DX003 (ip), vehicle: other): 100 % of control

Q: Which results are given for `O=C(NC(=O)c1ccc(F)c(Cl)c1)NC1CC1`?
A: T/C (dose: 60.0 mg/kg/injection, schedule: Q01DX005 (ip), vehicle: Klucel (hydroxypropylcellulose) (HPC)): 100 % of control; T/C (dose: 120.0 mg/kg/injection, schedule: Q01DX005 (ip), vehicle: Klucel (hydroxypropylcellulose) (HPC)): 102 % of control; T/C (dose: 240.0 mg/kg/injection, schedule: Q01DX005 (ip), vehicle: Klucel (hydroxypropylcellulose) (HPC)): 93 % of control

Q: Which T/C (dose: 50.0 mg/kg/injection, schedule: Q01DX009 (ip), vehicle: other) does the source give for `CCCCCCCCCCCCCCCCS(=O)(=O)N/N=C(/c1ccc(OC)c(OC)c1)N1CCCCC1` here?
A: 102 % of control

Q: And the T/C (dose: 100.0 mg/kg/injection, schedule: Q01DX009 (ip), vehicle: other)?
A: 91 % of control

Q: What about the T/C (dose: 200.0 mg/kg/injection, schedule: Q01DX009 (ip), vehicle: other) of the same compound?
A: 93 % of control

Q: Which T/C [4] does the source give for `O=C1CCC2(ON=C(c3ccccc3)C2Br)O1` (configuration not stated) here?
A: 116 % of control

Q: What about the T/C [5] of the same compound?
A: 108 % of control

Q: And the T/C [6]?
A: 116 % of control

Q: `NC(=O)c1ccccc1OC(=O)NCCO` was tested. Which T/C [4] did it give?
A: 106 % of control

Q: And the T/C [5]?
A: 95 % of control

Q: And the T/C [6]?
A: 100 % of control

Q: Which T/C (dose: 50.0 mg/kg/injection, schedule: Q01DX005 (ip), vehicle: Klucel + Tween-80) does the source give for `CCCCCCCC(=O)Nc1nnc(SCCCCCCSc2nnc(NC(=O)CCCCCCC)s2)s1` here?
A: 90 % of control

Q: What about the T/C (dose: 100.0 mg/kg/injection, schedule: Q01DX005 (ip), vehicle: Klucel + Tween-80) of the same compound?
A: 90 % of control

Q: What about the T/C (dose: 200.0 mg/kg/injection, schedule: Q01DX005 (ip), vehicle: Klucel + Tween-80) of the same compound?
A: 95 % of control

Q: How did the T/C (dose: 25.0 mg/kg/injection, schedule: Q01DX009 (ip), vehicle: water) turn out when `O=C(O)C(Cc1ccc(O)cc1)NSc1ccccc1[N+](=O)[O-]` (configuration not stated) was run?
A: 111 % of control

Q: What about the T/C (dose: 50.0 mg/kg/injection, schedule: Q01DX009 (ip), vehicle: water) of the same compound?
A: 108 % of control

Q: What about the T/C (dose: 100.0 mg/kg/injection, schedule: Q01DX009 (ip), vehicle: water) of the same compound?
A: 104 % of control

Q: And the T/C (dose: 200.0 mg/kg/injection, schedule: Q01DX009 (ip), vehicle: water)?
A: 110 % of control

Q: For `CN(CCS(=O)(=O)O)/N=C/c1ccc2c(c1)OCO2`, which T/C (dose: 100.0 mg/kg/injection, schedule: Q04DX003 (ip), vehicle: Klucel (hydroxypropylcellulose) (HPC)) is on record?
A: 103 % of control

Q: What about the T/C (dose: 200.0 mg/kg/injection, schedule: Q04DX003 (ip), vehicle: Klucel (hydroxypropylcellulose) (HPC)) of the same compound?
A: 100 % of control

Q: What about the T/C (dose: 400.0 mg/kg/injection, schedule: Q04DX003 (ip), vehicle: Klucel (hydroxypropylcellulose) (HPC)) of the same compound?
A: 100 % of control

Q: Which T/C [7] does the source give for `CC/C(=N\OC(=O)Nc1ccccc1)c1ccc(OC(=O)Nc2ccccc2)cc1` here?
A: 99 % of control

Q: And the T/C [8]?
A: 95 % of control

Q: What about the T/C [9] of the same compound?
A: 104 % of control

Q: How did the T/C (dose: 60.0 mg/kg/injection, schedule: Q01DX005 (ip), vehicle: saline with Tween-80) turn out when `c1ccc(N2CCN(C(c3cccs3)N3CCN(c4ccccc4)CC3)CC2)cc1` was run?
A: 100 % of control

Q: What about the T/C (dose: 120.0 mg/kg/injection, schedule: Q01DX005 (ip), vehicle: saline with Tween-80) of the same compound?
A: 99 % of control

Q: How did the T/C (dose: 1.56 mg/kg/injection, schedule: Q01DX009 (ip), vehicle: distilled water + Tween-80) turn out when `CC(C)CCCCCCCCCCCCC(=O)NCC(=O)NC1C(C)OC(Nc2ncnc3c2ncn3C)C(O)C1O` (configuration not stated) was run?
A: 98 % of control

Q: And the T/C (dose: 3.13 mg/kg/injection, schedule: Q01DX009 (ip), vehicle: distilled water + Tween-80)?
A: 95 % of control

Q: And the T/C (dose: 6.25 mg/kg/injection, schedule: Q01DX009 (ip), vehicle: distilled water + Tween-80)?
A: 101 % of control

Q: And the T/C (dose: 12.5 mg/kg/injection, schedule: Q01DX009 (ip), vehicle: distilled water + Tween-80)?
A: 98 % of control

Q: And the T/C (dose: 25.0 mg/kg/injection, schedule: Q01DX009 (ip), vehicle: distilled water + Tween-80)?
A: 90 % of control

Q: And the T/C (dose: 50.0 mg/kg/injection, schedule: Q01DX009 (ip), vehicle: distilled water + Tween-80)?
A: 91 % of control

Q: `COc1cc(/C=C/C(=O)NCCc2ccc(OCc3ccccc3)c(OC)c2)ccc1OCc1ccccc1` was tested. Which T/C (dose: 100.0 mg/kg/injection, schedule: Q01DX001 (ip), vehicle: saline with Tween-80) did it give?
A: 88 % of control

Q: And the T/C (dose: 200.0 mg/kg/injection, schedule: Q01DX001 (ip), vehicle: saline with Tween-80)?
A: 89 % of control

Q: What about the T/C (dose: 400.0 mg/kg/injection, schedule: Q01DX001 (ip), vehicle: saline with Tween-80) of the same compound?
A: 90 % of control
